In assay [1] the test system is IMQ-induced psoriasiform inflammation in mice. The assay is described as follows: IMQ-induced mouse model of psoriasis, treatment with CaMK4 inhibitor KN-93. Type of assay: in vivo. To be noted: KN-93 0.24 mg per mouse, tail vein, vs PBS control. Here is the method: (§1) An internationally used mouse model of psoriasis was used: 6-8-week-old C57BL/6 mice were given 5% IMQ applied to the shaved back skin of the mice at 62.5 mg per day for 5 days. The 6-8-week-old C57BL/6 mice were used as controls.
(§2) 1) The back skin thickness, scaling and erythema development of mice were observed on days 0 -5 after applying IMQ to the shaved back skin of mice. According to the clinical psoriasis area and severity index, the severity of back skin was evaluated by thickness, scaling and erythema. The back skin thickness was measured with vernier calipers. Scaling and erythema were scored on a scale ranging from 0-4: 0 represents none; 1 represents mild; 2 represents moderate; 3 represents significant; and 4 represents very significant.
2) Skin sections were prepared for staining with H&E, and the skin sections were stained by using the conventional universal H&E staining method.
(§3) 3) Statistical analysis of epidermal thickness. Specifically, H&E-stained sections were photographed in a double-blind manner and then measured for epidermal thickness.
5) The mRNA levels of IMQ induced mouse skin pathogenic factors were detected by quantitative PCR. The method was the same as that in the example 1.
62.5 mg of IMQ were applied to the shaved back skin of wild-type mice for 5 days. KN-93 (0.24 mg per mouse) or PBS was injected into mice through tail vein one hour before IMQ application on day 0 and day 2. Samples were collected on day 5 for subsequent experiments.

The test system is the same in assay [2]. The assay is described as follows: IMQ-induced mouse model of psoriasis, exogenous IL-10 injection. Type of assay: in vivo. The settings on record: IL-10 1 μg per mouse, tail vein, vs PBS control. Here is the method: as §1, §2, §3
62.5 mg of IMQ were applied to the shaved back skin of wild-type (WT) mice for 5 days. IL-10 (1 μg per mouse) or PBS was injected into mice through tail vein on 1 h before IMQ application on day 0 and day 2. Samples were collected on day 5 for subsequent experiments.
1) The back skin thickness, scaling and erythema development of mice were observed on days 0 -5 after applying IMQ to the shaved back skin of mice, and scored. The method is the same as that in the example 2;
2) Statistical analysis of epidermal thickness was performed; the method is the same as that in the example 2.
3) The mRNA levels of IMQ induced mouse skin pathogenic factors were detected by quantitative PCR. The method was the same as that in the example 1.

With `COc1ccc(S(=O)(=O)N(CCO)c2ccccc2CN(C)C/C=C/c2ccc(Cl)cc2)cc1` [KN-93], in assay [1] (day 0 and day 2), the scaling result was “reduce” and the skin thickness entry is “reduce”. For the same molecule, in assay [1] (day 0 and day 2, IMQ 5 days), the psoriasiform phenotype result is “less than that of control mice”. In assay [1] (H&E sections, day 5), the epidermal thickness entry was “reduce”. Further, in assay [1] (day 5 skin), the “mRNA level of IL-10 in skin” value was “higher than that of control mice” and the “proinflammatory cytokines (skin mRNA, quantitative PCR)” value is “reduce”.

B1: IL-10: exogenous interleukin-10, central anti-inflammatory mediator, injected through tail vein (protein, UniProt P22301 19-178, looked up)
Interleukin-10: SPGQGTQSENSCTHFPGNLPNMLRDLRDAFSRVKTFFQMKDQLDNLLLKESLLEDFKGYLGCQALSEMIQFYLEEVMPQAENQDPDIKAHVNSLGENLKTLRLRLRRCHRFLPCENKSKAVEQVKNAFNKLQEKGIYKAMSEFDIFINYIEAYMTMKIRN
For B1, in assay [2] (day 0 and day 2), the erythema result is given as “reduced”, the psoriasiform phenotype result was “attenuated”, the scaling result is recorded as “reduced” and the skin thickness entry was “reduced”. In assay [2] (day 5), the epidermal thickness entry was “reduced” and the “proinflammatory cytokines (skin mRNA, quantitative PCR)” value was “reduced”.

(Values after patent US12383519B2, “Application of CaMK4 in preparation of medicine for preventing and treating psoriasis” (priority 2021, dated 2025).)
